Results published in patent publication US7678799B2 (Teva Pharmaceutical Industries Ltd., priority 2003, dated 2010).
Counter-ions that a name gives are not always drawn.

Legend:
[1] = Storage at 0% relative humidity, crystal form by XRD; type: physicochemical; conditions: for transformed into Form M upon exposure to 0% relative humidity: 0% humidity, prolonged periods (such as 3 weeks)
From the text: (§1) In addition, no more than 5% of Form A transforms into Form M during heating and also during exposure to 0% relative humidity.
(§2) Ziprasidone HCl Form M, however, converts to the anhydrous form under heating (see table 1 and FIG. 8) or exposure to 0% relative humidity (see table 6 and FIG. 10).
(§3) This crystalline form may be sesquihydrate.
(§4) X-Ray powder diffraction data were obtained using by method known in the art using a SCINTAG powder X-Ray diffractometer model X'TRA equipped with a solid state detector. Copper radiation of 1.5418 Å was used. A round aluminum sample holder with round zero background quartz plate, with cavity of 25(diameter)*0.5(dept) mm. Detection limit: 5%.

[2] = Storage stability at 25, 40 and 55° C., crystal form by XRD; type: physicochemical
From the text: as §2, §3, §4

[3] = Specific surface area measurement (BET, Coulter SA3100); type: physicochemical; conditions: for Specific surface area: BET
From the text: Preferably, the SSA is about 5 to about 20 m^2/g.
Specific surface area measurement: • Instrument: Coulter SA3100 • Degassing: without • Sensitivity: high • Calculation: BET • Type: multipoint • Points: 10 • Sample cell: 9 and 12cm^3

[4] = Heating of crystalline ziprasidone HCl forms, crystal form by XRD; type: physicochemical; conditions: for Crystal form after heating at 80-105° C. overnight: HCl
From the text: as §1, §4

[5] = Slurry of Form A in water or ethanol, transformation to Form M; type: physicochemical
[6] = Equilibration of ziprasidone HCl form E at different relative humidities for 22 days (TGA, XRD); type: physicochemical; conditions: for TGA weight loss (water uptake) / Crystal form: 22 days
Protocol: The slurry temperature is preferably at least about 40° C. when using THF.
as §4
TGA analysis was done using a Mettler M3 meter. The weight of the samples was about 10 mg; the samples were scanned at a rate of 10° C./min from 25° C. to 200° C. The oven was constantly purged with nitrogen gas at a flow rate of 40 ml/min. Standard 70 μl alumina crucibles covered by lids with 1 hole were used.

[7] = cited from earlier work

**Q.** Which “transformed into Form M upon exposure to 0% relative humidity” value ([1]; listed as solid crystalline ziprasidone HCl having a water content of about 4.6% to about ) does the source give for `O=C1Cc2cc(CCN3CCN(c4nsc5ccccc45)CC3)c(Cl)cc2N1` [Crystalline ziprasidone HCl having a water content of 4.6-6.] here?
**A.** No more than 5%

**Q.** And the “transforms into Form M upon storage” value ([2]; 25, 40 and 55° C. for at least 3 months)?
**A.** No more than 5%

**Q.** Which Specific surface area ([3]; cell volume = 9 cm^3, HCl) does the source give for `O=C1Cc2cc(CCN3CCN(c4nsc5ccccc45)CC3)c(Cl)cc2N1` [Example 15, ziprasidone HCl, reference compound] here?
**A.** 3.908 m^2/g

**Q.** What about the Specific surface area ([3]; cell volume = 9 cm^3, listed as Repetition of U.S. Pat. No. 6,150,366 procedure (comparative example 15), HCl) of the same compound?
**A.** 3.908 m^2/g

**Q.** Which Specific surface area ([3]; cell volume = 9 cm^3, HCl) does the source give for `O=C1Cc2cc(CCN3CCN(c4nsc5ccccc45)CC3)c(Cl)cc2N1` [Example 16, ziprasidone HCl] here?
**A.** 5.461 m^2/g

**Q.** And the Specific surface area ([3]; cell volume = 9 cm^3, listed as Sample prepared according to example 16, HCl)?
**A.** 5.461 m^2/g

**Q.** With `O=C1Cc2cc(CCN3CCN(c4nsc5ccccc45)CC3)c(Cl)cc2N1` [Example 17, ziprasidone HCl] as the compound, how does the Specific surface area ([3]; cell volume = 12 cm^3, HCl) read?
**A.** 14.646 m^2/g

**Q.** And the Specific surface area ([3]; cell volume = 12 cm^3, listed as Sample prepared according to example 17, HCl)?
**A.** 14.646 m^2/g

**Q.** Which Specific surface area ([3]; cell volume = 12 cm^3, HCl) does the source give for `O=C1Cc2cc(CCN3CCN(c4nsc5ccccc45)CC3)c(Cl)cc2N1` [Example 18, ziprasidone HCl] here?
**A.** 18.831 m^2/g

**Q.** What about the Specific surface area ([3]; cell volume = 12 cm^3, listed as Sample prepared according to example 18, HCl) of the same compound?
**A.** 18.831 m^2/g

**Q.** For `O=C1Cc2cc(CCN3CCN(c4nsc5ccccc45)CC3)c(Cl)cc2N1` [Example 19, ziprasidone HCl], which Specific surface area ([3]; cell volume = 9 cm^3, HCl) is on record?
**A.** 11.335 m^2/g

**Q.** And the Specific surface area ([3]; cell volume = 9 cm^3, listed as Sample prepared according to example 19, HCl)?
**A.** 11.335 m^2/g

**Q.** For `O=C1Cc2cc(CCN3CCN(c4nsc5ccccc45)CC3)c(Cl)cc2N1` [Form A, ziprasidone HCl], which “specific surface area (SSA)” value ([3]; as measured by BET, general statement) is on record?
**A.** higher than 4 m^2/g

**Q.** What about the “transformed into Form M upon exposure to 0% relative humidity” value ([1]; HCl) of the same compound?
**A.** no more than 5%

**Q.** And the “Crystal form upon storage at 0% relative humidity” value ([1]; HCl)?
**A.** Form A

**Q.** And the “temperature of heating without a change in the crystal structure” value [4]?
**A.** up to 140 °C

**Q.** And the “Crystal form after heating at 80-105° C. overnight” value [4]?
**A.** Form A

**Q.** What about the “Form A transformed into Form M during heating” value ([4]; heating) of the same compound?
**A.** no more than 5%

**Q.** And the “transformed into Form M upon storage under accelerated aging conditions” value ([2]; 40° C., 75% RH, at least about 6 months)?
**A.** no more than 5%

**Q.** What about the “transforms to Form M” value ([5]; ethanol slurry) of the same compound?
**A.** 95%

**Q.** And the “Form A transformed into Form M” value ([5]; slurried in water)?
**A.** no more than 5%

**Q.** Which “TGA weight loss (water uptake)” value ([6]; RH 0%) does the source give for `O=C1Cc2cc(CCN3CCN(c4nsc5ccccc45)CC3)c(Cl)cc2N1` [Form E, ziprasidone HCl] here?
**A.** 5.3%

**Q.** And the “TGA weight loss (water uptake)” value ([6]; RH 20%)?
**A.** 7.2%

**Q.** What about the “TGA weight loss (water uptake)” value ([6]; RH 40%) of the same compound?
**A.** 4.8%

**Q.** What about the “TGA weight loss (water uptake)” value ([6]; RH 60%) of the same compound?
**A.** 5.0%

**Q.** And the Crystal form ([6]; RH 80%)?
**A.** M + A

**Q.** What about the “TGA weight loss (water uptake)” value ([6]; RH 80%) of the same compound?
**A.** 9.2%

**Q.** And the Crystal form ([6]; RH 100%)?
**A.** M + A + amorphous

**Q.** What about the “crystal form after exposure to relative humidity” value ([6]; relative humidity of about 20% to about 60% for about 22 days) of the same compound?
**A.** Form A

**Q.** Which “Crystal form upon storage at 0% relative humidity” value ([1]; HCl) does the source give for `O=C1Cc2cc(CCN3CCN(c4nsc5ccccc45)CC3)c(Cl)cc2N1` [Form M, ziprasidone HCl, reference compound] here?
**A.** Anhydrous

**Q.** What about the “Crystal form after heating at 80-105° C. overnight” value [4] of the same compound?
**A.** Anhydrous

**Q.** With `O=C1Cc2cc(CCN3CCN(c4nsc5ccccc45)CC3)c(Cl)cc2N1` [Repetition of U.S. Pat. No. 5,312,925 Example 2] [ziprasidone HCl, reference compound] as the compound, how does the Specific surface area ([3]; cell volume = 9 cm^3, HCl) read?
**A.** 3.909 m^2/g

**Q.** With `O=C1Cc2cc(CCN3CCN(c4nsc5ccccc45)CC3)c(Cl)cc2N1` [Repetition of U.S. Pat. No. 6,150,366 Example 10] [ziprasidone HCl, reference compound] as the compound, how does the Specific surface area ([3]; cell volume = 9 cm^3, HCl) read?
**A.** 2.135 m^2/g

**Q.** For `O=C1Cc2cc(CCN3CCN(c4nsc5ccccc45)CC3)c(Cl)cc2N1` [Ziprasidone HCl], which solubility in water [7] is on record?
**A.** 80 µg/mL
